Reference: US10165779B2, “Substituted pyrazolylpyrazole derivative and use of same as herbicide” (KYOYU AGRI CO., LTD., priority 2015, dated 2019)

What was measured:
Format in all cases: in vivo
Digitaria ciliaris [1] = assay: Farming soil treatment test; conditions: soil surface spray prior to weed growth, 30 days
Method: (§1) Field soil was filled into a 1/6000 are pot followed by seeding with Digitaria cilaris, Chenopodium album and Amaranthus retroflexus and covering with soil.
(§2) Wettable powders of compounds of formula (I) shown in Table 1 prepared in compliance with the preparation examples were diluted. with water to the prescribed amount of chemical and uniformly sprayed onto each soil surface layer using 100 liters of sprayed water per 10 are prior to weed growth following seeding.
(§3) After treating for 30 days in a glass greenhouse at an average atmospheric temperature of 30° C., the herbicidal efficacy thereof was investigated.
(§4) Evaluation of herbicidal efficacy was carried out in the same manner as the above-mentioned Test Example 1.

Amaranthus retroflexus [2] = assay: Farming soil treatment test; conditions: soil surface spray prior to weed growth, 30 days
Method: as §1, §2, §3, §4

Chenopodium album [3] = assay: Farming soil treatment test; conditions: soil surface spray prior to weed growth, 30 days
Method: as §1, §2, §3, §4

Scirpus juncoides = assay: Paddy herbicidal activity test; conditions: irrigated paddy pot, 30 days
Method: (§5) After treating for 30 days in a glass greenhouse at an average atmospheric temperature of 30° C., the herbicidal efficacy thereof was investigated. Evaluation of herbicidal efficacy was carried out by comparing growth inhibition rate (%) with an untreated group, while evaluation of phytotoxicity was carried out by comparing growth inhibition rate (%) with the state of a complete eradication group, and were evaluated at 11 levels indicated below. […] 2: 20% to less than 30% 3: 30% to less than 40% 4: 40% to less than 50% 5: 50% to less than 60% 6: 60% to less than 70% 7: 70% to less than 80% […]

Echinochloa crus-galli = assay: Paddy herbicidal activity test; conditions: irrigated paddy pot, treated at 3.5 leaf stage of Echinochloa crus-galli, 30 days
Method: as §5

Monochoria vaginalis = assay: Paddy herbicidal activity test; conditions: irrigated paddy pot, 30 days
Method: as §5

Digitaria ciliaris [4] = assay: Weed foliar treatment test (Test 3, 1.0 to 2.0 leaf stage); conditions: foliar spray at 1.0 to 2.0 leaf stage of Digitaria ciliaris, 3 weeks
Method: (§6) Soil was filled into a 1/6000 are pot followed by seeding with Digitaria ciliaris, Chenopodium album and Amaranthus retroflexus, covering with soil, and cultivating in a glass greenhouse at an average atmospheric temperature of 25° C.
(§7) Wettable powders of Target Compound (I) shown in Table 1 prepared in compliance with the preparation examples were diluted with water to the prescribed amount of chemical and uniformly sprayed onto the weeds using 150 liters of sprayed water per 10 are when Digitaria ciliaris had grown to the 1.0 to 2.0 leaf stage.
(§8) After treating for 3 weeks in a glass greenhouse at an average atmospheric temperature of 25° C., the herbicidal efficacy thereof was investigated.
as §4

Amaranthus retroflexus [5] = assay: as above; conditions: foliar spray at 1.0 to 2.0 leaf stage of Digitaria ciliaris, 3 weeks
Method: as §6, §7, §8, §4

Chenopodium album [6] = assay: as above; conditions: foliar spray at 1.0 to 2.0 leaf stage of Digitaria ciliaris, 3 weeks
Method: as §6, §7, §8, §4

Galinsoga parviflora = assay: Weed foliar treatment test (Test 4, 4.0 to 5.0 leaf stage); conditions: 10 g a.i./10a; foliar spray at 4.0 to 5.0 leaf stage of Digitaria ciliaris; 20 days
Method: (§9) Field soil was filled into a 1/4500 are pot followed by seeding with Digitaria ciliaris and Galinsoga parviflora, covering with soil and cultivating in a glass greenhouse at an average atmospheric temperature of 25° C.
as §7, with “100” for “150”, “4.0” for “1.0”, “5.0” for “2.0”, “stage (plant height: 10 cm to 15 cm).” for “stage.”
(§10) After treating for 20 days in a glass greenhouse at an average atmospheric temperature of 25° C., the herbicidal efficacy thereof was investigated.
as §4

Digitaria ciliaris [7] = assay: as above; conditions: 10 g a.i./10a; foliar spray at 4.0 to 5.0 leaf stage of Digitaria ciliaris (plant height 10 cm to 15 cm); 20 days
Method: as §9
as §7, with “100” for “150”, “4.0” for “1.0”, “5.0” for “2.0”, “stage (plant height: 10 cm to 15 cm).” for “stage.”
as §10, §4

Oryza sativa = assay: Paddy herbicidal activity test, phytotoxicity to transplanted rice; conditions: rice transplanted at 2.0 leaf stage, 30 days
Method: as §5

| Structure (SMILES) | herbicidal efficacy Digitaria ciliaris (Digitaria ciliaris [1]; 5g a.i./10a) | herbicidal efficacy Digitaria ciliaris (Digitaria ciliaris [1]; 10g a.i./10a) | herbicidal efficacy Amaranthus retroflexus (Amaranthus retroflexus [2]; 5g a.i./10a) | herbicidal efficacy Amaranthus retroflexus (Amaranthus retroflexus [2]; 10g a.i./10a) | herbicidal efficacy Chenopodium album (Chenopodium album [3]; 5g a.i./10a) | herbicidal efficacy Chenopodium album (Chenopodium album [3]; 10g a.i./10a) | herbicidal efficacy Scirpus juncoides (Scirpus juncoides; 1g a.i./10a) | herbicidal efficacy Scirpus juncoides (Scirpus juncoides; 5g a.i./10a) | herbicidal efficacy Echinochloa crus-galli (Echinochloa crus-galli; 1g a.i./10a) | herbicidal efficacy Echinochloa crus-galli (Echinochloa crus-galli; 5g a.i./10a) | herbicidal efficacy Monochoria vaginalis (Monochoria vaginalis; 1g a.i./10a) | herbicidal efficacy Monochoria vaginalis (Monochoria vaginalis; 5g a.i./10a) | herbicidal efficacy Digitaria ciliaris (Digitaria ciliaris [4]; 5g a.i./10a) | herbicidal efficacy Digitaria ciliaris (Digitaria ciliaris [4]; 10g a.i./10a) | herbicidal efficacy Amaranthus retroflexus (Amaranthus retroflexus [5]; 5g a.i./10a) | herbicidal efficacy Amaranthus retroflexus (Amaranthus retroflexus [5]; 10g a.i./10a) | herbicidal efficacy Chenopodium album (Chenopodium album [6]; 5g a.i./10a) | herbicidal efficacy Chenopodium album (Chenopodium album [6]; 10g a.i./10a) | herbicidal efficacy Galinsoga parviflora (Galinsoga parviflora) | herbicidal efficacy Digitaria ciliaris (Digitaria ciliaris [7]) | also measured |
| --- | --- | --- | --- | --- | --- | --- | --- | --- | --- | --- | --- | --- | --- | --- | --- | --- | --- | --- | --- | --- | --- |
| CCOC(=O)N(C(=O)OC)c1c(C#N)cnn1-c1nn2c(c1Cl)CCCC2 [Compound 1, Methyl N-(3-chloro-4,5,6,7-tetrahydropyrazolo[1,5-a]pyridine-2-yl)-4-cyanopyr azol-5-yl)-N-ethoxycarbonyl Carbamate] | 9 (9: 90% to less than 100%) | 9 (9: 90% to less than 100%) | 9 (9: 90% to less than 100%) | 9 (9: 90% to less than 100%) | 9 (9: 90% to less than 100%) | 10 (10: 100%) | 9 (9: 90% to less than 100%) | 9 (9: 90% to less than 100%) | 9 (9: 90% to less than 100%) | 10 (10: 100%) | 10 (10: 100%) | 10 (10: 100%) | 9 (9: 90% to less than 100%) | 10 (10: 100%) | 10 (10: 100%) | 10 (10: 100%) | 10 (10: 100%) | 10 (10: 100%) | 10 (10: 100%) | 9 (9: 90% to less than 100%) |  |
| COC(=O)N(C(=O)OC)c1c([N+](=O)[O-])cnn1-c1nn2c(c1Cl)CCCC2 [Compound 3] |  |  |  |  |  |  |  |  |  |  |  |  |  |  |  |  |  |  | 10 (10: 100%) | 10 (10: 100%) |  |
| COC(=O)N(C(=O)OC)c1c(C#N)cnn1-c1nn2c(c1Br)CCCC2 [Compound 4] | 10 (10: 100%) | 10 (10: 100%) | 10 (10: 100%) | 10 (10: 100%) | 9 (9: 90% to less than 100%) | 10 (10: 100%) | 9 (9: 90% to less than 100%) | 10 (10: 100%) | 10 (10: 100%) | 10 (10: 100%) | 10 (10: 100%) | 10 (10: 100%) | 10 (10: 100%) | 10 (10: 100%) | 10 (10: 100%) | 10 (10: 100%) | 10 (10: 100%) | 10 (10: 100%) | 10 (10: 100%) | 10 (10: 100%) | phytotoxicity Oryza sativa (Oryza sativa; 1g a.i./10a): 0 (0 (exponent): 0% to less than 10% (growth inhibition rate)); phytotoxicity Oryza sativa (Oryza sativa; 5g a.i./10a): 1 (1: 10% to less than 20%) |
| COC(=O)N(C(=O)OC)c1c([N+](=O)[O-])cnn1-c1nn2c(c1Br)CCCC2 [Compound 5] | 9 (9: 90% to less than 100%) | 9 (9: 90% to less than 100%) | 10 (10: 100%) | 10 (10: 100%) | 10 (10: 100%) | 10 (10: 100%) | 10 (10: 100%) | 10 (10: 100%) | 9 (9: 90% to less than 100%) | 9 (9: 90% to less than 100%) | 10 (10: 100%) | 10 (10: 100%) | 9 (9: 90% to less than 100%) | 10 (10: 100%) | 10 (10: 100%) | 10 (10: 100%) | 10 (10: 100%) | 10 (10: 100%) | 10 (10: 100%) | 9 (9: 90% to less than 100%) | phytotoxicity Oryza sativa (Oryza sativa; 1g a.i./10a): 1 (1: 10% to less than 20%); phytotoxicity Oryza sativa (Oryza sativa; 5g a.i./10a): 1 (1: 10% to less than 20%) |
| CCOC(=O)N(C(=O)OCC)c1c(C#N)cnn1-c1nn2c(c1Cl)CCCC2 [Compound 6] | 10 (10: 100%) | 10 (10: 100%) | 10 (10: 100%) | 10 (10: 100%) | 9 (9: 90% to less than 100%) | 10 (10: 100%) | 9 (9: 90% to less than 100%) | 10 (10: 100%) | 10 (10: 100%) | 10 (10: 100%) | 10 (10: 100%) | 10 (10: 100%) | 10 (10: 100%) | 10 (10: 100%) | 10 (10: 100%) | 10 (10: 100%) | 10 (10: 100%) | 10 (10: 100%) | 10 (10: 100%) | 10 (10: 100%) | phytotoxicity Oryza sativa (Oryza sativa; 1g a.i./10a): 0 (0 (exponent): 0% to less than 10% (growth inhibition rate)); phytotoxicity Oryza sativa (Oryza sativa; 5g a.i./10a): 1 (1: 10% to less than 20%) |
| CC(C)OC(=O)N(C(=O)OC(C)C)c1c(C#N)cnn1-c1nn2c(c1Cl)CCCC2 [Compound 12] |  |  |  |  |  |  |  |  |  |  |  |  |  |  |  |  |  |  | 10 (10: 100%) | 10 (10: 100%) |  |
| CC(C)COC(=O)N(C(=O)OCC(C)C)c1c(C#N)cnn1-c1nn2c(c1Cl)CCCC2 [Compound 13] |  |  |  |  |  |  |  |  |  |  |  |  |  |  |  |  |  |  | 10 (10: 100%) | 10 (10: 100%) |  |
| C=CCOC(=O)N(C(=O)OCC=C)c1c([N+](=O)[O-])cnn1-c1nn2c(c1Cl)CCCC2 [Compound 15] |  |  |  |  |  |  |  |  |  |  |  |  |  |  |  |  |  |  | 10 (10: 100%) | 10 (10: 100%) |  |
| CCOC(=O)Nc1c([N+](=O)[O-])cnn1-c1nn2c(c1Cl)CCCC2 [Control agent 2.28, reference compound] |  |  |  |  |  |  |  |  |  |  |  |  |  |  |  |  |  |  |  |  | phytotoxicity Oryza sativa (Oryza sativa; 1g a.i./10a): 0 (0 (exponent): 0% to less than 10% (growth inhibition rate)); phytotoxicity Oryza sativa (Oryza sativa; 5g a.i./10a): 1 (1: 10% to less than 20%) |
